# Read-outs that look alike come from different tables or passages of the source.
# Columns and labels:
# [1] = target: T1, human FLT3 protein (FLT3 (WT)) (Homo sapiens, UniProt P36888); experiment: FLT3 inhibition test (FLT3 enzyme inhibition, time-resolved fluorescence of substrate peptide phosphorylation); type: biochemical; settings: read-out: FLT3 (WT) enzyme inhibition activity
# T1 construct: human FLT3 protein (intracellular region, 564 to 993 aa); GST; purchased Carna Biosciences; host or cells: baculovirus expression system
# T1 sequence (P36888 564-993): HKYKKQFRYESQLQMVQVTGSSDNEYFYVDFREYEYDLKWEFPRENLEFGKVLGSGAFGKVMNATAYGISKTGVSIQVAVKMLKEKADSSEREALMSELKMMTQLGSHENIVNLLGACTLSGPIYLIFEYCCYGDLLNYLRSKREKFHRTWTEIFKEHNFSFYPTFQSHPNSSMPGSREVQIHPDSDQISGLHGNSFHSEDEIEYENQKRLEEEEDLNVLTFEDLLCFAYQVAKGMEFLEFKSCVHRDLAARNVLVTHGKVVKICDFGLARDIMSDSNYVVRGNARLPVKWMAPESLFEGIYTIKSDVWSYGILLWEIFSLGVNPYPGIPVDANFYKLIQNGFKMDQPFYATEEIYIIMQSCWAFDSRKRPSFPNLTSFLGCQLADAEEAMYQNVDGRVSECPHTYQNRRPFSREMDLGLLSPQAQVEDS
# Summary of the method: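 Wild-type human FLT3 (1.2 μg) pre-incubated with compound 15 min at 25° C in 100 mM HEPES pH 7.5, 10 mM MgCl2, 25 mM NaCl, 1 mM DTT. Reaction started with substrate peptide and ATP (final 50 μM), run 30 min at 25° C; phosphorylation read by time-resolved fluorescence.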
# MV4-11 cells = experiment: Leukemia cell proliferation inhibition test (ATPlite), MV4-11; type: cell-based; settings: Homo sapiens, read-out: MV4-11 cell proliferation inhibition effect
# Summary of the method: (§1)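 Molm-13 or MV4-11 cells at 10,000 cells/well in RPMI with 10% FBS and pen/strep were exposed to serially diluted compound for 72 h at 37 °C, 5% CO2. Total cellular ATP was read by luciferase luminescence. GI50 was taken relative to 0.1% DMSO control, from duplicates by sigmoid non-linear regression.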
# Molm-13 cells = experiment: Leukemia cell proliferation inhibition test (ATPlite), Molm-13; type: cell-based; settings: Homo sapiens, read-out: MOLM13 cell proliferation inhibition effect
# Summary of the method: as §1
# [2] = GST-fused human FLT3 (564 to 993 aa), ATP 50 μM
# [3] = MV4-11, 72 h, MV4-11, 72 hours culture, ATPlite, GI50 per method
# [4] = MOLM-13, 72 h, Molm-13, 72 hours culture, ATPlite, GI50 per method
Compound,"IC50 [1, 2]",IC50 (MV4-11 cells; [3]),IC50 (Molm-13 cells; [4]),IC50 ([1]; FLT3 (WT)),"IC50 (MV4-11 cells; MV4-11, MV4-11 cell)","IC50 (Molm-13 cells; MOLM-13, MOLM13 cell)"
CCCNc1nc(Nc2ccc(C#N)c(F)c2)ncc1C#CCCCNC(=O)[C@H](C)N(C)C(=O)/C=C/CN(C)C [Compound 9-25],< 0.01 µM,< 0.01 µM,< 0.01 µM,,,
CCCNc1nc(Nc2ccc(C#N)cc2)ncc1C#CCCC(=O)NC(C)(C)CN(C)C(=O)/C=C/CN(C)C [Compound 8-16],0.01 to 0.1 µM,0.01 to 0.1 µM,0.1 to 1 µM,,,
"C=CC(=O)N(C)CC(=O)NCCCNC(=O)c1cnc(Nc2ccc3cnncc3c2)nc1NCCC [Compound 6-10A, N-(3-(2-(N-methylacrylylamido)actamido)propyl)-2-((phthalazin-6-yl)amino)-4-(propylamino)pyrimidine-5-carboxamide]",< 0.01 µM,0.01 to 0.1 µM,0.1 to 1 µM,,,
C[C@@H](C(=O)NCCCC#Cc1cnc(Nc2cccc(F)c2)nc1NCCCN(C)C)N(C)C(=O)/C=C/CN(C)C [Compound 10-4],< 0.01 µM,< 0.01 µM,< 0.01 µM,,,
COCCN(C)c1nc(Nc2ccc(C#N)cc2)ncc1C#CCCCNC(=O)[C@H](C)N(C)C(=O)/C=C/CN(C)C [Compound 10-51],< 0.01 µM,< 0.01 µM,< 0.01 µM,,,
"C[C@@H](C(=O)NCCCC#Cc1cnc(Nc2ccc(C#N)cc2)nc1Nc1ccc(F)cc1)N(C)C(=O)/C=C/CN(C)C [Compound 10-2, (S,E)-N-(1--((5-(2-((4-cyanophenyl)amino)-4-((4-fluorophenyl)amino)pyrimidin-5-yl)-4-pentyn-1-yl)amino)-1-oxopropan-2-yl)-4-(dimethylamino)-N-methyl-2-butenamide]",< 0.01 µM,< 0.01 µM,< 0.01 µM,,,
CCCNc1nc(Nc2ccc(C#N)cc2)ncc1C#CCCCNC(=O)[C@@H]1CC(F)(F)CN1C(=O)/C=C/CN(C)C [Compound 7-54],0.01 to 0.1 µM,< 0.01 µM,< 0.01 µM,,,
C[C@@H](C(=O)NCCCC#Cc1cnc(Nc2cccc(F)c2)nc1NCCCF)N(C)C(=O)/C=C/CN(C)C [Compound 7-31],< 0.01 µM,< 0.01 µM,< 0.01 µM,,,
CCNc1nc(Nc2ccc3cnn(C)c3c2)ncc1C#CCCCNC(=O)[C@H](C)N(C)C(=O)/C=C/CN(C)C [Compound 10-57],< 0.01 µM,< 0.01 µM,< 0.01 µM,,,
"COCCCNc1nc(Nc2ccnc(OC)c2)ncc1C#CCCCNC(=O)[C@@H]1CCCN1C(=O)/C=C/CN(C)C [Compound 9-32, (S,E)-1-(4-(Dimethylamino)-2-butenoyl)-N-(5-(4-((3-methoxypropyl)amino)-2-((methoxypyridin-4-yl)amino)pyrimidin-5-yl)-4-pentyn-1-yl)pyrrolidine-2-carboxamide]",< 0.01 µM,< 0.01 µM,< 0.01 µM,,,
CCCN(C)c1nc(Nc2cccc(F)c2)ncc1C#CCCCNC(=O)[C@H](C)N(C)C(=O)/C=C/CN(C)C [Compound 9-5],< 0.01 µM,0.01 to 0.1 µM,0.01 to 0.1 µM,,,
CCCNc1nc(NCCc2ccncc2)ncc1C(=O)Nc1ccc(OC)c(NC(=O)CNC(=O)/C=C/CN(C)C)c1 [Compound 1-9],< 0.01 µM,< 0.01 µM,0.01 to 0.1 µM,,,
"C[C@@H](C(=O)Nc1cccc(C#Cc2cnc(NCCc3ccncc3)nc2N2CCOCC2)c1)N(C)C(=O)/C=C/CN(C)C [Compound 12-13, (S,E)-4-(dimethylamino)-N-methyl-N-(1-((3-((4-morpholino-2-((2-(pyridin-4-yl)ethyl)amino)pyrimidin-5-yl)ethynyl)phenyl)amino)-1-oxopropan-2-yl)-2-butenamide]",< 0.01 µM,< 0.01 µM,< 0.01 µM,,,
CCCNc1nc(NCCc2ccncc2)ncc1C(=O)NCCCNC(=O)CNC(=O)/C=C/CN(C)C [Compound 2-24],< 0.01 µM,0.01 to 0.1 µM,0.01 to 0.1 µM,,,
CCCNc1nc(Nc2ccc(Cn3ccnn3)cc2)ncc1C#CCCCNC(=O)CN(C)C(=O)/C=C/CN(C)C [Compound 12-12],0.01 to 0.1 µM,0.01 to 0.1 µM,< 0.01 µM,,,
CCCNc1nc(Nc2ccc(C(N)=O)cc2)ncc1C#CCCCNC(CCOC)(CCOC)CNC(=O)/C=C/CN(C)C [Compound 8-13],< 0.01 µM,0.01 to 0.1 µM,0.01 to 0.1 µM,,,
C[C@@H](C(=O)NCCCC#Cc1cnc(Nc2cccc(F)c2)nc1OC1CCC1)N(C)C(=O)/C=C/CN(C)C [Compound 7-6],< 0.01 µM,0.01 to 0.1 µM,0.01 to 0.1 µM,,,
COc1ccc(Nc2nc(Nc3ccc(F)cc3)ncc2C#CCCCNC(=O)[C@H](C)N(C)C(=O)/C=C/CN(C)C)cn1 [Compound 10-40],< 0.01 µM,< 0.01 µM,< 0.01 µM,,,
C=CC(=O)NCCC(=O)Nc1cccc(NC(=O)c2cnc(NCCc3ccncc3)nc2NCCC)c1 [Compound 2-7],< 0.01 µM,0.01 to 0.1 µM,0.1 to 1 µM,,,
"CCCNc1nc(Nc2cc(C)ns2)ncc1C#CCCCNC(=O)[C@H](C)N(C)C(=O)/C=C/CN(C)C [Compound 9-30, (S,E)-4-(Dimethylamino)-N-methyl-N-(1-((5-(2-((3-methylisothiazol-5-yl)amino)-4-(propylamino)pyrimidin-5-yl)-4-pentyn-1-yl)amino)-1-oxopropan-2-yl)-2-butenamide]",< 0.01 µM,< 0.01 µM,< 0.01 µM,,,
"CCCNc1nc(NCCc2ccncc2)ncc1C(=O)Nc1cccc(NC(=O)[C@H](C)N(C)C(=O)/C=C/CN(C)C)c1 [Compound 2-12, (S,E)-N-(3-(2-(4-(Dimethylamino)-N-methyl-2-butenamido)propanamido)phenyl)-4-(propylamino)-2-((2-(pyridin-4-yl)ethyl)amino)pyrimidine-5-carboxamide]",< 0.01 µM,< 0.01 µM,< 0.01 µM,,,
CCCNc1nc(NCCc2ccncc2)ncc1C(=O)Nc1cccc(NC(=O)CNC(=O)/C=C/CN2CCOCC2)c1 [Compound 2-13],< 0.01 µM,0.01 to 0.1 µM,0.01 to 0.1 µM,,,
CCCNc1nc(Nc2cccc(F)c2)ncc1C#CCCCNC(=O)[C@@H]1CCN1C(=O)/C=C/CN(C)C [Compound 7-51],< 0.01 µM,< 0.01 µM,< 0.01 µM,,,
CCCNc1nc(Nc2ccc(C#N)cc2)ncc1C#CCCCNC(=O)[C@H](CC)N(C)C(=O)/C=C/CN(C)C [Compound 7-34],< 0.01 µM,< 0.01 µM,< 0.01 µM,,,

# Further lines, results first:
"IC50 [1, 2]",IC50 (MV4-11 cells; [3]),IC50 (Molm-13 cells; [4]),IC50 ([1]; FLT3 (WT)),"IC50 (MV4-11 cells; MV4-11, MV4-11 cell)","IC50 (Molm-13 cells; MOLM-13, MOLM13 cell)",Compound
< 0.01 µM,< 0.01 µM,0.01 to 0.1 µM,,,,CCCNc1nc(Nc2ccc(C#N)cc2)ncc1C#C[C@H]1CCC[C@@H](NC(=O)[C@H](C)N(C)C(=O)/C=C/CN(C)C)C1 [Compound 13-3]
,,,< 0.01 µM,< 0.01 µM,< 0.01 µM,CC(C)Nc1nc(Nc2ccc(C#N)cc2)ncc1C#C[C@@H]1CCC[C@H](NC(=O)[C@H](C)N(C)C(=O)/C=C/CN(C)C)C1 [Compound 21-31]
,,,0.01 to 0.1 µM,0.01 to 0.1 µM,0.01 to 0.1 µM,COc1ccc(Nc2nc(NC3CC3)ncc2C#CCCCNC(=O)[C@H](C)N(C)C(=O)/C=C/CN(C)C)cn1 [Compound 22-24]
< 0.01 µM,< 0.01 µM,< 0.01 µM,,,,CNc1ncc(C#C[C@H]2C[C@@H](NC(=O)[C@H](C)N(C)C(=O)/C=C/CN(C)C)C2)c(Nc2ccc(OC)cc2)n1 [Compound 13-21]
< 0.01 µM,< 0.01 µM,0.01 to 0.1 µM,,,,"CCCNc1cc(Nc2cccc(F)c2)ncc1C(=O)Nc1cccc(NC(=O)[C@H](C)N(C)C(=O)/C=C/CN(C)C)c1 [Compound 18-2, (S,E)-N-(3-(2-(4-(dimethylamino)-N-methyl-2-butenamido)propanamido)phenyl)-6-((3-fluorophenyl)amino)-4-(propylamino)nicotinamide]"
< 0.01 µM,< 0.01 µM,< 0.01 µM,,,,"CCCNc1nc(Nc2cccc(F)c2)ncc1C#C[C@@H]1CCC[C@H](NC(=O)[C@H](C)N(C)C(=O)/C=C/CN(C)C)C1 [Compound 13-1, (E)-4-(dimethylamino)-N—((S)-1-(((1S,3R)-3-((2-((3-fluorophenyl)amino)-4-(propylamino)pyrimidin-5-yl)ethynyl)cyclohexyl)amino)-1-oxopropan-2-yl)-N-methyl-2-butenamide]"
< 0.01 µM,< 0.01 µM,< 0.01 µM,,,,C[C@@H](C(=O)NCCCC#Cc1cnc(Nc2ccc(F)c(F)c2)nc1NC1CC1)N(C)C(=O)/C=C/CN(C)C [Compound 21-2]
,,,< 0.01 µM,< 0.01 µM,< 0.01 µM,CCCNc1nc(Nc2ccc3occc3c2)ncc1C#CCCCNC(=O)[C@H](C)N(C)C(=O)/C=C/CN(C)C [Compound 21-34]
